{"source": "patent US9399626B2", "about": "“2-thiopyrimidinones” (Pfizer Inc., priority 2011, dated 2016)", "note": "Where a name gives a salt, the structure may show the parent alone.", "data": [{"biological_target": "T1, MPO (purified from human polynuclear leukocytes) (Homo sapiens, UniProt P05164)", "T1 construct": "purified from human polynuclear leukocytes; purchased Calbiochem/EMD Biosciences; host or cells: human polynuclear leukocytes (natural source)", "T1 sequence (P05164 279-745 limits assumed)": "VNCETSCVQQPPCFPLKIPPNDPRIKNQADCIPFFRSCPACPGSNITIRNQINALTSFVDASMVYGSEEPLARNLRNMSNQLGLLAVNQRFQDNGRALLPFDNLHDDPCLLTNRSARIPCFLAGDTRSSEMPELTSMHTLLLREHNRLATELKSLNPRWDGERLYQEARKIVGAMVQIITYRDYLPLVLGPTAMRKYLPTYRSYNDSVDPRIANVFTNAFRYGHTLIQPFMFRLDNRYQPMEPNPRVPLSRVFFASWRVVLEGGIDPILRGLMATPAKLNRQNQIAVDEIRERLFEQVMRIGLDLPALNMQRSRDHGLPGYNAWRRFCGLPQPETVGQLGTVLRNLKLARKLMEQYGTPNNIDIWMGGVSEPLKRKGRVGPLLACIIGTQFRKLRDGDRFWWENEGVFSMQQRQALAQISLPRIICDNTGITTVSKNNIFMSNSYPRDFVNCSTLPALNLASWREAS", "T1 sequence (P05164 165-273 limits assumed)": "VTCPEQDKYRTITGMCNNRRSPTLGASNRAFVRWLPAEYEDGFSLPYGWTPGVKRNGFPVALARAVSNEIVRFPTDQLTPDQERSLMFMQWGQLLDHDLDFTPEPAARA", "experiment": "MPO Amplex Red Activity Assay", "format": "biochemical", "conditions": "Table 1, 2 μM H2O2, pH 7.4", "experimental": "MPO Amplex Red Activity Assay.\nMPO peroxidase activity was measured by monitoring the formation of resorufin generated from the oxidation of Amplex Red (10-Acetyl-3,7-dihydroxyphenoxazine) (Invitrogen, Carlsbad, Calif.) by MPO (Gomes, Fernandes et al. 2005). Assay mixtures (100 μL total volume) contained 50 mM NaPi pH 7.4, 150 mM NaCl, 1 mM DTPA (diethylenetriaminepentaacetic acid), 2% DMSO, 2 μM H2O2, 30 μM Amplex Red and the reaction was initiated by the addition of […] (purified from human polynuclear leukocytes and purchased from Calbiochem/EMD Biosciences, Gibbstown, N.J.). All assays were performed in 96-well, half-area, black, nonbinding surface, polystyrene plates (Corning) and the production of resorufin (excitation 530 nm, emission 580 nm) was monitored every 20 sec on a Spectramax M2 Microplate Spectrophotometer (Molecular Devices, Palo Alto, Calif.) equipped with Softmax Pro software (Molecular Devices, Palo Alto, Calif.). Reactions to determine the background reaction rate consisted of all assay components and 4 μL of 500 unit/mL bovine catalase (Sigma) in 50 mM KPi pH 7.0. The background rate was subtracted from each reaction progress curve. All data was analyzed using non-linear regression analysis in Microsoft Excel and Kaleidagraph (Synergy Software).\nTo determine inhibitor potency (kinact/KI) against MPO, the first 600 sec of the reaction progress curves were fit to equation 1, where Vo is the initial rate in RFU/sec and t is time in seconds, to obtain the first order rate constant for enzyme inactivation (kobs) at each inhibitor concentration.\n[formula] Equation 1 is a variation of the standard equation for slow binding inhibition where the steady state velocity (Vs) is set to zero. Each kobs value was corrected for auto-inactivation of the enzyme by subtracting the kobs value for the uninhibited reaction. The corrected kobs values were then plotted versus inhibitor concentration ([I]) and fit to equation 2\n[formula] where kinact is the maximal rate of inactivation and KI is the inhibitor concentration that yields half the rate of maximal inactivation (Copeland 2005).\nTable 1 and (1A) below provides the myeloperoxidase inhibitory activity for the Examples below in accordance with the above-described assay.", "values": [{"smiles": "COCCn1c(-c2c[nH]c3ncccc23)cc(=O)[nH]c1=S", "note": "[Example 35, 1-(2-methoxyethyl)-6-(1H-pyrrolo[2,3-b]pyridin-3-yl)-2-thioxo-2,3-dihydropyrimidin-4(1H)-one]", "MPO kinact/Ki": "4110 1/s per M"}, {"smiles": "NCCn1c(-c2csc3ccccc23)cc(=O)[nH]c1=S", "note": "[Example 36, 1-(2-aminoethyl)-6-(1-benzothien-3-yl)-2-thioxo-2,3-dihydropyrimidin-4(1H)-one hydrochloride]", "MPO kinact/Ki": "5980 1/s per M"}, {"smiles": "NC(=O)Cn1c(-c2ccc3c(c2)CCO3)cc(=O)[nH]c1=S", "note": "[Example 37, 2-[6-(2,3-dihydro-1-benzofuran-5-yl)-4-oxo-2-thioxo-3,4-dihydropyrimidin-1(2H)-yl]acetamide]", "MPO kinact/Ki": "6460 1/s per M"}, {"smiles": "NCCCn1c(-c2ccc3c(c2)CCO3)cc(=O)[nH]c1=S", "note": "[Example 38, 1-(3-aminopropyl)-6-(2,3-dihydro-1-benzofuran-5-yl)-2-thioxo-2,3-dihydropyrimidin-4(1H)-one hydrochloride]", "MPO kinact/Ki": "5240 1/s per M"}, {"smiles": "O=c1cc(-c2csc3ccccc23)n(CCO)c(=S)[nH]1", "note": "[Example 39, 6-(1-benzothien-3-yl)-1-(2-hydroxyethyl)-2-thioxo-2,3-dihydropyrimidin-4(1H)-one]", "MPO kinact/Ki": "4520 1/s per M"}, {"smiles": "O=c1cc(-c2cc3ccccc3s2)n(CCO)c(=S)[nH]1", "note": "[Example 40, 6-(1-benzothien-2-yl)-1-(2-hydroxyethyl)-2-thioxo-2,3-dihydropyrimidin-4(1H)-one]", "MPO kinact/Ki": "6430 1/s per M"}, {"smiles": "COCCn1c(-c2cccc3c2OCC3)cc(=O)[nH]c1=S", "note": "[Example 41, 6-(2,3-dihydro-1-benzofuran-7-yl)-1-(2-methoxyethyl)-2-thioxo-2,3-dihydropyrimidin-4(1H)-one]", "MPO kinact/Ki": "5000 1/s per M"}, {"smiles": "O=c1cc(-c2cccc3ncsc23)n(CCO)c(=S)[nH]1", "note": "[Example 42, 6-(1,3-benzothiazol-7-yl)-1-(2-hydroxyethyl)-2-thioxo-2,3-dihydropyrimidin-4(1H)-one]", "MPO kinact/Ki": "6070 1/s per M"}, {"smiles": "COc1ccc(C)cc1-c1cc(=O)[nH]c(=S)n1CCCN", "note": "[Example 43, 1-(3-aminopropyl)-6-(2-methoxy-5-methylphenyl)-2-thioxo-2,3-dihydropyrimidin-4(1H)-one hydrochloride]", "MPO kinact/Ki": "34600 1/s per M"}, {"smiles": "COc1ncc(C)cc1-c1cc(=O)[nH]c(=S)n1CC(N)=O", "note": "[Example 44, 2-[6-(2-methoxy-5-methylpyridin-3-yl)-4-oxo-2-thioxo-3,4-dihydropyrimidin-1(2H)-yl]acetamide]", "MPO kinact/Ki": "3440 1/s per M"}, {"smiles": "COc1ncc(C)cc1-c1cc(=O)[nH]c(=S)n1CCCN", "note": "[Example 45, 1-(3-aminopropyl)-6-(2-methoxy-5-methylpyridin-3-yl)-2-thioxo-2,3-dihydropyrimidin-4(1H)-one trifluoroacetate]", "MPO kinact/Ki": "4000 1/s per M"}, {"smiles": "COCCn1c(-c2ccccc2CCO)cc(=O)[nH]c1=S", "note": "[Example 46, 6-[2-(2-hydroxyethyl)phenyl]-1-(2-methoxyethyl)-2-thioxo-2,3-dihydropyrimidin-4(1H)-one]", "MPO kinact/Ki": "1110 1/s per M"}, {"smiles": "O=c1cc(-c2cccc3c2OCCO3)n(CCO)c(=S)[nH]1", "note": "[Example 47, 6-(2,3-dihydro-1,4-benzodioxin-5-yl)-1-(2-hydroxyethyl)-2-thioxo-2,3-dihydropyrimidin-4(1H)-one]", "MPO kinact/Ki": "2340 1/s per M"}, {"smiles": "COc1cc(OC)cc(-c2cc(=O)[nH]c(=S)n2CCN)c1", "note": "[Example 48, 1-(2-aminoethyl)-6-(3,5-dimethoxyphenyl)-2-thioxo-2,3-dihydropyrimidin-4(1H)-one hydrochloride]", "MPO kinact/Ki": "6570 1/s per M"}, {"smiles": "COCCn1c(-c2nc(C)ccc2OC)cc(=O)[nH]c1=S", "note": "[Example 49, 1-(2-methoxyethyl)-6-(3-methoxy-6-methylpyridin-2-yl)-2-thioxo-2,3-dihydropyrimidin-4(1H)-one]", "MPO kinact/Ki": "2230 1/s per M"}, {"smiles": "COCCn1c(-c2ccc(C)nc2OC)cc(=O)[nH]c1=S", "note": "[Example 50, 1-(2-methoxyethyl)-6-(2-methoxy-6-methylpyridin-3-yl)-2-thioxo-2,3-dihydropyrimidin-4(1H)-one]", "MPO kinact/Ki": "2610 1/s per M"}, {"smiles": "COCCn1c(-c2cc(C)cnc2OC)cc(=O)[nH]c1=S", "note": "[Example 51, 1-(2-methoxyethyl)-6-(2-methoxy-5-methylpyridin-3-yl)-2-thioxo-2,3-dihydropyrimidin-4(1H)-one]", "MPO kinact/Ki": "6180 1/s per M"}, {"smiles": "NCCOc1ccccc1-c1cc(=O)[nH]c(=S)n1CCO", "note": "[Example 52, 6-[2-(2-aminoethoxy)phenyl]-1-(2-hydroxyethyl)-2-thioxo-2,3-dihydropyrimidin-4(1H)-one formate]", "MPO kinact/Ki": "33.4 1/s per M"}, {"smiles": "NCCn1c(-c2ccccc2OCCO)cc(=O)[nH]c1=S", "note": "[Example 53, 1-(2-aminoethyl)-6-[2-(2-hydroxyethoxy)phenyl]-2-thioxo-2,3-dihydropyrimidin-4(1H)-one hydrochloride]", "MPO kinact/Ki": "3290 1/s per M"}, {"smiles": "COc1cc(OC)cc(-c2cc(=O)[nH]c(=S)n2CCO)c1", "note": "[Example 54, 6-(3,5-dimethoxyphenyl)-1-(2-hydroxyethyl)-2-thioxo-2,3-dihydropyrimidin-4(1H)-one]", "MPO kinact/Ki": "7070 1/s per M"}, {"smiles": "COCCn1c(-c2ccccc2SC)cc(=O)[nH]c1=S", "note": "[Example 55, 1-(2-methoxyethyl)-6-[2-(methylthio)phenyl]-2-thioxo-2,3-dihydropyrimidin-4(1H)-one]", "MPO kinact/Ki": "7740 1/s per M"}, {"smiles": "COc1cc(F)ccc1-c1cc(=O)[nH]c(=S)n1CC(N)=O", "note": "[Example 56, 2-[6-(4-fluoro-2-methoxyphenyl)-4-oxo-2-thioxo-3,4-dihydropyrimidin-1(2H)-yl]acetamide]", "MPO kinact/Ki": "4770 1/s per M"}, {"smiles": "COc1cc(F)ccc1-c1cc(=O)[nH]c(=S)n1CCCN", "note": "[Example 57, 1-(3-aminopropyl)-6-(4-fluoro-2-methoxyphenyl)-2-thioxo-2,3-dihydropyrimidin-4(1H)-one hydrochloride]", "MPO kinact/Ki": "13100 1/s per M"}, {"smiles": "COc1ccc(F)cc1-c1cc(=O)[nH]c(=S)n1CCCN", "note": "[Example 58, 1-(3-aminopropyl)-6-(5-fluoro-2-methoxyphenyl)-2-thioxo-2,3-dihydropyrimidin-4(1H)-one hydrochloride]", "MPO kinact/Ki": "11700 1/s per M"}, {"smiles": "COc1ccc(F)cc1-c1cc(=O)[nH]c(=S)n1CC(N)=O", "note": "[Example 59, 2-[6-(5-fluoro-2-methoxyphenyl)-4-oxo-2-thioxo-3,4-dihydropyrimidin-1(2H)-yl]acetamide]", "MPO kinact/Ki": "8480 1/s per M"}, {"smiles": "COCCn1c(-c2c(F)cccc2OC)cc(=O)[nH]c1=S", "note": "[Example 60, 6-(2-fluoro-6-methoxyphenyl)-1-(2-methoxyethyl)-2-thioxo-2,3-dihydropyrimidin-4(1H)-one]", "MPO kinact/Ki": "3470 1/s per M"}, {"smiles": "COc1ccc(-c2cc(=O)[nH]c(=S)n2CCN)c(Cl)c1", "note": "[Example 61, 1-(2-aminoethyl)-6-(2-chloro-4-methoxyphenyl)-2-thioxo-2,3-dihydropyrimidin-4(1H)-one hydrochloride]", "MPO kinact/Ki": "3530 1/s per M"}, {"smiles": "COc1cc(Cl)ccc1-c1cc(=O)[nH]c(=S)n1CCN", "note": "[Example 62, 1-(2-aminoethyl)-6-(4-chloro-2-methoxyphenyl)-2-thioxo-2,3-dihydropyrimidin-4(1H)-one hydrochloride]", "MPO kinact/Ki": "6930 1/s per M"}, {"smiles": "COc1ccc(Cl)cc1-c1cc(=O)[nH]c(=S)n1CCN", "note": "[Example 63, 1-(2-aminoethyl)-6-(5-chloro-2-methoxyphenyl)-2-thioxo-2,3-dihydropyrimidin-4(1H)-one hydrochloride]", "MPO kinact/Ki": "12200 1/s per M"}, {"smiles": "COc1ccc(Cl)cc1-c1cc(=O)[nH]c(=S)n1CCO", "note": "[Example 64, 6-(5-chloro-2-methoxyphenyl)-1-(2-hydroxyethyl)-2-thioxo-2,3-dihydropyrimidin-4(1H)-one]", "MPO kinact/Ki": "22500 1/s per M"}, {"smiles": "COc1ncc(Cl)cc1-c1cc(=O)[nH]c(=S)n1CCO", "note": "[Example 65, 6-(5-chloro-2-methoxypyridin-3-yl)-1-(2-hydroxyethyl)-2-thioxo-2,3-dihydropyrimidin-4(1H)-one]", "MPO kinact/Ki": "7940 1/s per M"}, {"smiles": "COCCn1c(-c2cc3ccccc3n2C)cc(=O)[nH]c1=S", "note": "[Example 66, 1-(2-methoxyethyl)-6-(1-methyl-1H-indol-2-yl)-2-thioxo-2,3-dihydropyrimidin-4(1H)-one]", "MPO kinact/Ki": "1580 1/s per M"}, {"smiles": "COCCn1c(-c2cn(C)c3ccccc23)cc(=O)[nH]c1=S", "note": "[Example 67, 1-(2-methoxyethyl)-6-(1-methyl-1H-indol-3-yl)-2-thioxo-2,3-dihydropyrimidin-4(1H)-one]", "MPO kinact/Ki": "7520 1/s per M"}, {"smiles": "NC(=O)Cn1c(-c2csc3ccccc23)cc(=O)[nH]c1=S", "note": "[Example 68, 2-[6-(1-benzothien-3-yl)-4-oxo-2-thioxo-3,4-dihydropyrimidin-1(2H)-yl]acetamide]", "MPO kinact/Ki": "1160 1/s per M"}]}]}
